# According to US11986471B2, “Compounds and methods of use” (Tango Therapeutics, Inc., priority 2018, dated 2024):
# Columns and labels:
# [1] = molecular target: T1, PRMT5 (Homo sapiens, UniProt O14744); assay: PRMT5 IC50 assay in the presence of SAM as cofactor; assay type: biochemical
# T1 construct: purchased Viva (custom protein)
# Method in brief: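 Enzyme: human PRMT5. Conditions: plus SAM, plus MTA, or cofactor-free. Output: IC50 (μM); Ki via IC50/1.5 (SAM) or IC50/13.5 (MTA).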
# [2] = molecular target: T1, PRMT5; assay: PRMT5 IC50 assay with no cofactor; assay type: biochemical; details: read-out: No Co-factor IC50
# Method in brief: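 Three cofactor conditions tested for PRMT5 inhibition: none, MTA and SAM, each giving an IC50. For conversion to Ki, the MTA-condition IC50 is divided by 13.5 and the SAM-condition IC50 by 1.5, and the two Ki values are expressed as a SAM/MTA ratio.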
# [3] = molecular target: T1, PRMT5; assay: PRMT5 IC50 assay in the presence of MTA as cofactor; assay type: biochemical; details: for IC50: PRMT5, MTA as cofactor; for SAM/MTA Ratio: ratio between Ki in the presence of SAM and Ki in the presence of MTA
# Method in brief: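 MTA-dependent versus SAM-dependent inhibition of human PRMT5 was assessed by IC50; conversion factors of 13.5 and 1.5 gave the corresponding Ki.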
# [4] = system: HAP1 MTAP-intact; assay: SDMA in-cell western assay, HAP1 MTAP-intact cell line; assay type: cell-based; details: Homo sapiens
# Method in brief: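 Using an MTAP-isogenic HAP1 cell pair, inhibition of SDMA formation is read by in-cell western and expressed as IC50. MTAP-selectivity is assigned where the ratio between lines reaches 3 fold or greater.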
# [5] = system: HAP1 MTAP-deleted; assay: SDMA in-cell western assay, HAP1 MTAP-deleted cell line; assay type: cell-based; details: for IC50: Homo sapiens, HAP1 MTAP-deleted cell line; for MTAP Intact/Deleted Ratio: IC50 ratio HAP1 MTAP-intact / HAP1 MTAP-deleted
# Method in brief: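 In-cell western for SDMA marks; MTAP-deleted (null) HAP1 background; values given as IC50.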
# T1 sequence (O14744 whole entry): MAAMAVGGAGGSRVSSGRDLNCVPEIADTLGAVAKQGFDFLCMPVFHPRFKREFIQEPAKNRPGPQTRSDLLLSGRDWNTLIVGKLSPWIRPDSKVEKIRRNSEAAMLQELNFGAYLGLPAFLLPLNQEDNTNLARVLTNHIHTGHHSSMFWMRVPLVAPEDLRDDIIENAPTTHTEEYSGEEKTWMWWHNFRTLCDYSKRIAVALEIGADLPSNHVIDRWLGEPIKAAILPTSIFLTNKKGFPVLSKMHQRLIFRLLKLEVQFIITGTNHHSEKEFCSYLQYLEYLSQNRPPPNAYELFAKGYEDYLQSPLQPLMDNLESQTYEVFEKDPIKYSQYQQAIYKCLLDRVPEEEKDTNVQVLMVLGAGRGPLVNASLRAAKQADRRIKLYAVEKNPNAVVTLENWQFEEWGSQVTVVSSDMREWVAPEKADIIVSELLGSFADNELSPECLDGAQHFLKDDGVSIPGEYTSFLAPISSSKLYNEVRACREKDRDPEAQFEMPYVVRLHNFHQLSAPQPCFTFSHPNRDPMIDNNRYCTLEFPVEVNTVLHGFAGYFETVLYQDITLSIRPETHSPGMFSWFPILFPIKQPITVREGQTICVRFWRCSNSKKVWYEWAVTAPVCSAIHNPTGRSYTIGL
# T1 sequence (Q9BQA1 whole entry partner): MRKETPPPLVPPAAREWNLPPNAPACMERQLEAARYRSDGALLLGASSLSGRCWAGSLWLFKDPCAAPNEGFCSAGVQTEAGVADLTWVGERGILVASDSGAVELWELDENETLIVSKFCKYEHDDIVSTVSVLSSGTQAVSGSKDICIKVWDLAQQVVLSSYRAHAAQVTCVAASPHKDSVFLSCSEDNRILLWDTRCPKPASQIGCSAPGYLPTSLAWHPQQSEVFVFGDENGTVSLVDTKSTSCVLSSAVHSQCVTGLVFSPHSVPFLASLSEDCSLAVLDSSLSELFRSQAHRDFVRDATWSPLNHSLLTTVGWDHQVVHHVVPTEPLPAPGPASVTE
SMILES,IC50 [1] [nM],IC50 [2] [nM],IC50 [3] [nM],IC50 [4] [nM],IC50 [5] [nM],SAM/MTA Ratio [3],MTAP Intact/Deleted Ratio [5]
"O=C(NC[C@H](O)CN1CCc2cc(OCc3cnco3)c(F)c(F)c2C1)c1ccnc(NC2CCC2)c1 [Compound 364, 2-(cyclobutylamino)-N-[(2S)-3-[7,8-difluoro-6-(oxazol-5-ylmethoxy)-3,4-dihydro-1H-isoquinolin-2-yl]-2-hydroxy-propyl]pyridine-4-carboxamide]",50 to 500,≥ 5000,50 to 500,≥ 10000,1000 to 10000,A (a Ki ratio greater than or equal to 10 fold between the Ki in the presence of SAM and the Ki in the presence of MTA),C* (an IC50 ratio of less than 3 fold between the IC50 in the HAP1 MTAP-intact cell line and the HAP1 MTAP-deleted cell line)
"O=C(NC[C@H](O)CN1CCc2c(ccc(OCc3cnco3)c2Cl)C1)c1ccnc(NC2CCN(C(=O)C3CC3)CC2)c1 [Compound 366, (S)—N-(3-(5-chloro-6-(oxazol-5-ylmethoxy)-3N-dihydroisoquinolin-2(1H)-yl)-2-hydroxypropyl)-2-((1-(cyclopropanecarbonyl)piperidin-4-yl)amino)isonicotinamide]",50 to 500,500 to 5000,50 to 500,≥ 10000,1000 to 10000,A (a Ki ratio greater than or equal to 10 fold between the Ki in the presence of SAM and the Ki in the presence of MTA),B* (an IC50 ratio greater than or equal to 3 fold but lower than 10 fold between the IC50 in the HAP1 MTAP-intact cell line and the HAP1 MTAP-deleted cell line)
"Cc1ncoc1COc1ccc2c(c1C)CCN(C[C@@H](O)CNC(=O)c1cc(NC3CCCC3)ncn1)C2 [Compound 367, 6-(cyclopentylamino)-N-[(2S)-2-hydroxy-3-{5-methyl-6-[(4-methyl-1,3-oxazol-5-yl)methoxy]-1,2,3,4-tetrahydroisoquinolin-2-yl}propyl]pyrimidine-4-carboxamide]",500 to 5000,≥ 5000,50 to 500,≥ 10000,≥ 10000,A (a Ki ratio greater than or equal to 10 fold between the Ki in the presence of SAM and the Ki in the presence of MTA),C* (an IC50 ratio of less than 3 fold between the IC50 in the HAP1 MTAP-intact cell line and the HAP1 MTAP-deleted cell line)
"Cc1ncoc1COc1ccc2c(c1C)CCN(C[C@@H](O)CNC(=O)c1cc(NC3CCCCC3)ncn1)C2 [Compound 368, 6-(cyclohexylamino)-N-[(2S)-2-hydroxy-3-{5-methyl-6-[(4-methyl-1,3-oxazol-5-yl)methoxy]-1,2,3,4-tetrahydroisoquinolin-2-yl}propyl]pyrimidine-4-carboxamide]",500 to 5000,≥ 5000,50 to 500,≥ 10000,≥ 10000,A (a Ki ratio greater than or equal to 10 fold between the Ki in the presence of SAM and the Ki in the presence of MTA),C* (an IC50 ratio of less than 3 fold between the IC50 in the HAP1 MTAP-intact cell line and the HAP1 MTAP-deleted cell line)
"Cc1ncoc1COc1ccc2c(c1C)CCN(C[C@@H](O)CNC(=O)c1cc(NC3CCC3)ncn1)C2 [Compound 371, 6-(cyclobutylamino)-N-[(2S)-2-hydroxy-3-{5-methyl-6-[(4-methyl-1,3-oxazol-5-yl)methoxy]-1,2,3,4-tetrahydroisoquinolin-2-yl}propyl]pyrimidine-4-carboxamide]",500 to 5000,≥ 5000,50 to 500,≥ 10000,< 1000,A (a Ki ratio greater than or equal to 10 fold between the Ki in the presence of SAM and the Ki in the presence of MTA),A* (an IC50 ratio greater than or equal to 10 fold between the IC50 in the HAP1 MTAP-intact cell line and the HAP1 MTAP-deleted cell line)

# The next lines start with results.
IC50 [1] [nM],IC50 [2] [nM],IC50 [3] [nM],IC50 [4] [nM],IC50 [5] [nM],SMILES,SAM/MTA Ratio [3],MTAP Intact/Deleted Ratio [5]
500 to 5000,≥ 5000,50 to 500,< 1000,1000 to 10000,"O=C(NC[C@H](O)CN1CCc2cc(OCc3cnco3)cc(F)c2C1)c1ccnc(NC2CCC2)c1 [Compound 362, 2-(cyclobutylamino)-N-[(2S)-3-[8-fluoro-6-(oxazol-5-ylmethoxy)-3,4-dihydro-1H-isoquinolin-2-yl]-2-hydroxy-propyl]pyridine-4-carboxamide]",A (a Ki ratio greater than or equal to 10 fold between the Ki in the presence of SAM and the Ki in the presence of MTA),C* (an IC50 ratio of less than 3 fold between the IC50 in the HAP1 MTAP-intact cell line and the HAP1 MTAP-deleted cell line)
50 to 500,500 to 5000,< 50,1000 to 10000,< 1000,"CC(=O)N1CC(Nc2cc(C(=O)NC[C@H](O)CN3CCc4cc(OCc5cnco5)ccc4C3)nc(N3CCCCC3)n2)C1 [Compound 365, (S)-6-((1-acetylazetidin-3-yl)amino)-N-(2-hydroxy-3-(6-(oxazol-5-ylmethoxy)-3A-dihydroisoquinolin-2(1H)-yl)propyl)-2-(piperidin-1-yl)pyrimidine-4-carboxamide]",A (a Ki ratio greater than or equal to 10 fold between the Ki in the presence of SAM and the Ki in the presence of MTA),B* (an IC50 ratio greater than or equal to 3 fold but lower than 10 fold between the IC50 in the HAP1 MTAP-intact cell line and the HAP1 MTAP-deleted cell line)
500 to 5000,500 to 5000,50 to 500,1000 to 10000,≥ 10000,"COCCN(C)c1cc(C(=O)NC[C@H](O)CN2CCc3cc(OCc4cnco4)ccc3C2)cc(NC2CCC2)n1 [Compound 369, (S)-2-(cyclobutylamino)-N-(2-hydroxy-3-(6-(oxazol-5-ylmethoxy)-3,4-dihydroisoquinolin-2(1H)-yl)propyl)-6-((2-methoxyethyl)(methyl)amino)isonicotinamide]",A (a Ki ratio greater than or equal to 10 fold between the Ki in the presence of SAM and the Ki in the presence of MTA),C* (an IC50 ratio of less than 3 fold between the IC50 in the HAP1 MTAP-intact cell line and the HAP1 MTAP-deleted cell line)
50 to 500,≥ 5000,50 to 500,≥ 10000,1000 to 10000,"CC(C)(C)N1CCN(c2nc(NC3COC3)cc(C(=O)NC[C@H](O)CN3CCc4c(ccc(OCc5cnco5)c4Cl)C3)n2)CC1 [Compound 370, (S)-2-(4-(tert-butyl)piperazin-1-yl)-N-(3-(5-chloro-6-(oxazol-5-ylmethoxy)-3N-dihydroisoquinolin-2(1H)-yl)-2-hydroxypropyl)-6-(oxetan-3-ylamino)pyrimidine-4-carboxamide]",A (a Ki ratio greater than or equal to 10 fold between the Ki in the presence of SAM and the Ki in the presence of MTA),C* (an IC50 ratio of less than 3 fold between the IC50 in the HAP1 MTAP-intact cell line and the HAP1 MTAP-deleted cell line)
500 to 5000,≥ 5000,50 to 500,< 1000,< 1000,"O=C(NC[C@H](O)CN1CCc2cc(OCc3cnco3)ccc2C1)c1cc(NC2CCCC2)ncn1 [Compound 372, (S)-6-(cyclopentylamino)-N-(2-hydroxy-3-(6-(oxazol-5-ylmethoxy)-3,4-dihydroisoquinolin-2(1H)-yl)propyl)pyrimidine-4-carboxamide]",A (a Ki ratio greater than or equal to 10 fold between the Ki in the presence of SAM and the Ki in the presence of MTA),C* (an IC50 ratio of less than 3 fold between the IC50 in the HAP1 MTAP-intact cell line and the HAP1 MTAP-deleted cell line)
50 to 500,500 to 5000,50 to 500,≥ 10000,1000 to 10000,CC(C)(C)N1CCN(c2nc(NC3COC3)cc(C(=O)NC[C@H](O)CN3CCc4cc(OCc5cnco5)ccc4C3)n2)CC1 [Compound 373],A (a Ki ratio greater than or equal to 10 fold between the Ki in the presence of SAM and the Ki in the presence of MTA),B* (an IC50 ratio greater than or equal to 3 fold but lower than 10 fold between the IC50 in the HAP1 MTAP-intact cell line and the HAP1 MTAP-deleted cell line)
50 to 500,≥ 5000,50 to 500,1000 to 10000,< 1000,"Cc1ncoc1COc1ccc2c(c1)CCN(C[C@@H](O)CNC(=O)c1cc(NC3CCC3)ncn1)C2 [Compound 374, 6-(cyclobutylamino)-N-[(2S)-2-hydroxy-3-{6-[(4-methyl-1,3-oxazol-5-yl)methoxy]-1,2,3,4-tetrahydroisoquinolin-2-yl}propyl]pyrimidine-4-carboxamide]",A (a Ki ratio greater than or equal to 10 fold between the Ki in the presence of SAM and the Ki in the presence of MTA),C* (an IC50 ratio of less than 3 fold between the IC50 in the HAP1 MTAP-intact cell line and the HAP1 MTAP-deleted cell line)
